# From PubChem BioAssay (NCI)
#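 1) Cells in 96-well plates. 2) Compound, 48 h, 5 concentrations. 3) Linear interpolation between surrounding doses. 4) Unreached endpoint = highest concentration. GI50 = concentration required for 50% inhibition of growth. At the TGI there is no net growth.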
# Columns and labels:
# Test in all cases: DTP human tumour cell line panel, 48 h
# 786-0 renal = test system: 786-0 renal
# HL-60(TB) leukemia = test system: HL-60(TB) leukemia
# RXF 393 renal = test system: RXF 393 renal
# CCRF-CEM leukemia = test system: CCRF-CEM leukemia
# HOP-62 NSCLC = test system: HOP-62 NSCLC
# M19-MEL melanoma = test system: M19-MEL melanoma
# U251 CNS = test system: U251 CNS
# DLD-1 colon = test system: DLD-1 colon
# SNB-78 CNS = test system: SNB-78 CNS
# NCI/ADR-RES ovarian = test system: NCI/ADR-RES ovarian
Compound,TGI (786-0 renal) [µM],TGI (HL-60(TB) leukemia) [µM],TGI (RXF 393 renal) [µM],TGI (CCRF-CEM leukemia) [µM],TGI (HOP-62 NSCLC) [µM],TGI (M19-MEL melanoma) [µM],TGI (U251 CNS) [µM],TGI (DLD-1 colon) [µM],TGI (SNB-78 CNS) [µM],GI50 (786-0 renal) [µM],GI50 (HL-60(TB) leukemia) [µM],GI50 (RXF 393 renal) [µM],GI50 (CCRF-CEM leukemia) [µM],GI50 (HOP-62 NSCLC) [µM],GI50 (NCI/ADR-RES ovarian) [µM],TGI (NCI/ADR-RES ovarian) [µM],GI50 (U251 CNS) [µM]
CC(=O)OC(C)(C)C[N+](=O)[O-],> 100,> 100,> 100,> 100,> 100,> 100,> 100,> 100,–,–,–,–,–,–,–,–,–
Cc1cc(=O)n2c(cc3cccccc32)n1,> 100,> 100,> 100,> 100,> 100,–,> 100,–,> 100,–,–,–,–,–,–,–,–
O=C1C(c2ccccc2)=[N+]([O-])c2cc([N+](=O)[O-])ccc21,63.3,30.1,34.9,40.5,> 100,32.9,> 100,46.9,–,–,–,–,–,–,–,–,–
Cc1ccc(-c2nc3ccccc3c(=O)n2NC2OC(CO)C(O)C(O)C2O)cc1 (configuration not stated),> 100,> 100,–,> 100,> 100,> 100,> 100,–,> 100,–,–,–,–,–,–,–,–
Cl.[O-]c1cccc2cccnc12.[O-]c1cccc2cccnc12.[O-]c1cccc2cccnc12.[O-]c1cccc2cccnc12.[Ti+4],4.41,–,2.13,–,59.6,–,30.5,1.6,–,0.567,0.226,0.319,0.291,4.7,0.243,11.5,2.53
Oc1ccccc1/C=N\Nc1ccccc1,16.6,4.8,77.9,> 100,> 100,–,65.6,–,–,2.7,1.31,19.1,0.533,21.9,3.2,88.5,10.2
O=C(C(=O)c1cccnc1)c1cccnc1,> 100,> 100,> 100,> 100,> 100,–,> 100,–,–,> 100,> 100,> 100,> 100,> 100,> 100,> 100,> 100
CC(C)c1ccc(C(c2c(O)c3ccccc3oc2=O)c2c(O)c3ccccc3oc2=O)cc1,40.9,26.3,48.1,36.2,50.5,–,30.1,–,–,–,–,–,–,–,–,65.9,–
COc1ccc(-c2nsc3c2NC(=O)CC3c2cccc(F)c2)cc1 (configuration not stated),> 100,> 100,> 100,> 100,> 100,–,> 100,–,–,8.22,4.21,4.04,4.89,8.79,2.96,16.7,5.55
